According to publication PMC9028889 (Pharmaceuticals, 2022):

Legend:
[1] = tested on: MB231 cells; assay: clonogenic survival / colony formation assay, MB231; format: cell-based, human; conditions: for EC50: Homo sapiens, clonogenic survival assay, TNBC cell line; for colony formation: MB231, 0, 1, 5, and 10 μM, 2 weeks
Experimental: (§1) MCF10A, T47D, and MB231 cells (5 × 10^3) were seeded in 24-well plates, and cells were exposed to different CMC conjugates at different concentrations (0, 1, 5, and 10 μM) for 2 weeks, changing the medium for every 3 days with respective CMC conjugates at the indicated concentrations. After 2 weeks, cells were washed with PBS and fixed in 100% methanol for 30 min followed by staining with KaryoMax Giemsa stain for 1 h. The unfound dyes were removed by washing the wells with water and dried overnight at room temperature. Finally, cells were lysed with lysis buffer (1% SDS in 0.2 N NaOH) for 5 min, and the absorbance of the released dye was measured at 630 nm, as described before. Values are shown as mean ± SD of three experiments with 3 wells in each, for a total of 9 repeats.

[2] = tested on: T47D cells; assay: clonogenic survival / colony formation assay, T47D; format: cell-based, human; conditions: for EC50: Homo sapiens, T47D, clonogenic survival assay, ER+ BC cell line; for colony formation: T47D, 0, 1, 5, and 10 μM, 2 weeks
Experimental: as §1

[3] = tested on: MCF10A cells; assay: clonogenic survival / colony formation assay, MCF10A; format: cell-based, human; conditions: for EC50: MCF-10A, clonogenic survival assay, human normal immortalized mammary epithelial cell line; for colony formation: MCF10A, 0, 1, 5, and 10 μM, 2 weeks
Experimental: as §1

[4] = tested on: MMTV–PyMT–Tg mice; assay: spontaneous mouse mammary tumor model; format: in vivo; conditions: 10 mg/kg body, three times a week by oral gavage for 7 weeks
Experimental: We chose MMTV–PyMT–Tg mouse mainly because the tumor formation and progression in this mouse is characterized by four different stages (hyperplasia, adenoma/mammary intra-epithelial neoplasia, early and late carcinoma) and also mimics human BC; the tumor develops first as ER-positive (ER^+) but ultimately becomes ER-negative BC (ER^− BC). We randomly assigned 6-week-old MMTV–PyMT–Tg mice into two groups (6 mice in each); one control and one CMC2 treated (10 mg/kg body, three times a week by oral gavage for 7 weeks). We measured the tumor volume twice a week. Tumor volume was calculated using the formula V = L × W^2/2, where L represents the largest tumor diameter, and W represents the smallest tumor diameter. Mice were euthanized after seven weeks of treatment, and tumor tissues were collected. The total tumor weight was measured. Tumor tissue sections were prepared and stained with Hematoxylin and Eosin (H&E) for morphometric analysis and Ki67 for cell proliferation analysis.
Similarly, six-week-old MMTV–PyMT–Tg mice were grouped into two groups—one control and one CMC2 treatment. The control mice received PBS, and the CMC2-treated group received CMC2 conjugate (10 mg/kg body by oral gavage, three times a week) for 7 weeks. We monitored animal weight and measured the tumor volume twice a week. At the end of the experimental period, mice were euthanized, and tumor tissues were harvested and measured for tumor weight. Tumor tissues were processed to extract RNA and protein and fixed in 10% buffered formalin phosphate solution (obtained from Fisher Scientific, Catalog #SF100-4) for morphological analysis.

[5] = tested on: normal C57BL/6 mice; assay: toxicity study in normal C57BL/6 mice; format: in vivo; conditions: 50 and 100 mg/kg body, oral gavage daily for 7 days; for morphology (kidney, liver, lung): H&E
Experimental: We tested whether the synthesized conjugates are free of toxicity and safer to use in human normal cells and animal models. We treated human normal immortalized cell line (MCF10A) and normal C57BL/6 mice at different concentrations and time points.
Administration of CMC compounds to the mice: For toxicity studies, CMC1 and CMC2 conjugates at two different concentrations (50 and 100 mg/kg body) were given oral gavage daily for 7 days. At the end of the experiment, animals were euthanized, kidneys, liver, and lungs were analyzed for morphological changes. We also collected blood samples to measure Creatinine using a Creatinine assay kit (obtained from Millipore Sigma, Burlington, MA, USA, Catalog # MAK080), Alanine aminotransferase (ALT), using an ALT assay kit (obtained from the Millipore Sigma, Catalog #MAK053), Aspartate aminotransferase (AST), using an AST assay kit obtained from Millipore Sigma, Catalog #MAK055), and blood urea and nitrogen (BUN), using a urea nitrogen assay kit (obtained from ThermoFisher Scientific, Waltham, MA, USA, Catalog #EIABUN) as per the manufacturer’s instruction.

[6] = tested on: MCF10A cells; assay: MTT cell proliferation assay, MCF10A; format: cell-based, human; conditions: MCF10A, 0, 1, 5, and 10 μM, 72 h
Experimental: (§2) MCF10A, T47D, and MB231 cells (5 × 10^3) were seeded in 96-well plates and incubator at 37 °C with 5% CO2 in MEGM, DMEM, and RPMI medium (100 μL), respectively. After 24 h, the medium was replaced with the CMC conjugates at different concentrations (0, 1, 5, and 10 μM) for 72 h. After 72 h, 10 μL MTT reagent was added to each well and incubated for 2 h for the formation of purple formazan and then added 100 μL detergent to dissociate the formazan precipitate and measured at 570 nm. Values are shown as mean ± SD of three experiments with 3 wells in each, a total of 9 repeats.

[7] = tested on: MB231 cells; assay: MTT cell proliferation assay, MB231; format: cell-based, human; conditions: MB231, 0, 1, 5, and 10 μM, 72 h
Experimental: as §2

[8] = tested on: T47D cells; assay: MTT cell proliferation assay, T47D; format: cell-based, human; conditions: T47D, 0, 1, 5, and 10 μM, 72 h
Experimental: as §2

Question: Which results are given for `COc1cc(/C=C/C(=O)/C=C(O)/C=C/c2ccc(OC(=O)[C@H](C)NC(=O)C(Cl)Cl)c(OC)c2)ccc1OC(=O)[C@H](C)NC(=O)C(Cl)Cl` [CMC3, ((1E,3Z,6E)-3-Hydroxy-5-oxohepta-1,3,6-triene-1,7-diyl)bis(2-methoxy-4,1-phenylene) (2S,2’S)-bis(2-(2,2-dichloroacetamido)propanoate)]?
Answer: EC50 [1]: 0.518 µM; EC50 [2]: 1.59 µM; EC50 [3]: 9.71 µM

Question: What does the source list for `COc1cc(/C=C/C(=O)/C=C(O)/C=C/c2ccc(OC(=O)CCCNC(=O)C(Cl)Cl)c(OC)c2)ccc1OC(=O)CCCNC(=O)C(Cl)Cl` [CMC6, ((1E,3Z,6E)-3-Hydroxy-5-oxohepta-1,3,6-triene-1,7-diyl)bis(2-methoxy-4,1-phenylene) bis(4-(2,2-dichloroacetamido)butanoate)]?
Answer: melting point: 130 to 132 °C; EC50 [1]: 0.942 µM; EC50 [2]: 1.37 µM; EC50 [3]: 9.47 µM

Question: What does the source list for `COc1cc(/C=C/C(=O)/C=C(O)/C=C/c2ccc(OC(=O)CNC(=O)C(Cl)Cl)c(OC)c2)ccc1OC(=O)CNC(=O)C(Cl)Cl` [CMC2, ((1E,3Z,6E)-3-Hydroxy-5-oxohepta-1,3,6-triene-1,7-diyl)bis(2-methoxy-4,1-phenylene) bis(2-(2,2-dichloroacetamido)acetate)]?
Answer: lung nodules [4]: reducing; normal body weight and organ histology [4]: without affecting; overall survival rate [4]: increased; tumor cell proliferation (Ki67) in mammary and lung tumor tissue [4]: inhibiting; tumor growth [4]: significantly reduced; EC50 [1]: 0.778 µM; EC50 [2]: 1.42 µM; EC50 [3]: 9.68 µM; body weight [5]: no changes; kidney functions (serum creatinine and blood urea and nitrogen) [5]: no changes; liver functions (ALT and AST) [5]: no changes; morphology (kidney, liver, lung) [5]: no changes

Question: With `O=C(O)C(Cl)Cl` [DCA, Dichloroacetate, reference compound] as the compound, how does the “cell viability / proliferation (MTT)” value [6] read?
Answer: The value was “not”.

Question: What about the “cell viability / proliferation (MTT)” value [7] of the same compound?
Answer: The value was “inhibited”.

Question: What about the colony formation [1] of the same compound?
Answer: The colony formation was “inhibited”.

Question: What about the “cell viability / proliferation (MTT)” value [8] of the same compound?
Answer: The value was “inhibited”.

Question: And the colony formation [2]?
Answer: Its colony formation is “inhibited”.

Question: And the colony formation [3]?
Answer: The colony formation was “not”.

Question: Which results are given for `COc1cc(/C=C/C(=O)/C=C(O)/C=C/c2ccc(OC(=O)CCNC(=O)C(Cl)Cl)c(OC)c2)ccc1OC(=O)CCNC(=O)C(Cl)Cl` [CMC4, ((1E,3Z,6E)-3-Hydroxy-5-oxohepta-1,3,6-triene-1,7-diyl)bis(2-methoxy-4,1-phenylene) bis(3-(2,2-dichloroacetamido)propanoate)]?
Answer: melting point: 140 to 142 °C; EC50 [1]: 1.13 µM; EC50 [2]: 1.26 µM; EC50 [3]: 8.86 µM

Question: With `COc1cc(/C=C/C(=O)/C=C(O)/C=C/c2ccc(OC(=O)[C@H](Cc3ccccc3)NC(=O)C(Cl)Cl)c(OC)c2)ccc1OC(=O)[C@H](Cc1ccccc1)NC(=O)C(Cl)Cl` [CMC5, ((1E,3Z,6E)-3-Hydroxy-5-oxohepta-1,3,6-triene-1,7-diyl)bis(2-methoxy-4,1-phenylene) (2S,2’S)-bis(2-(2,2-dichloroacetamido)-3-phenylpropanoate)] as the compound, how does the EC50 [1] read?
Answer: Its EC50 is 0.838 µM.

Question: What about the EC50 [2] of the same compound?
Answer: Its EC50 is 1.25 µM.

Question: And the EC50 [3]?
Answer: Its EC50 is 9.6 µM.

Question: Which “cell viability / proliferation (MTT)” value [6] does the source give for `COc1cc(/C=C/C(=O)CC(=O)/C=C/c2ccc(O)c(OC)c2)ccc1O` [CUR, Curcumin, reference compound] here?
Answer: Its value is “not”.

Question: And the “cell viability / proliferation (MTT)” value [7]?
Answer: The value was “inhibited”.

Question: And the colony formation [1]?
Answer: Its colony formation is “inhibited”.

Question: And the “cell viability / proliferation (MTT)” value [8]?
Answer: The value was “inhibited”.

Question: And the colony formation [2]?
Answer: The colony formation was “inhibited”.

Question: And the colony formation [3]?
Answer: The colony formation was “not”.

Question: Which EC50 [1] does the source give for `COc1cc(/C=C/C(=O)/C=C(O)/C=C/c2ccc(OC(=O)C(Cl)Cl)c(OC)c2)ccc1OC(=O)C(Cl)Cl` [CMC1, ((1E,3Z,6E)-3-Hydroxy-5-oxohepta-1,3,6-triene-1,7-diyl)bis(2-methoxy-4,1-phenylene) bis(2,2-dichloroacetate)] here?
Answer: The EC50 was 0.424 µM.

Question: What about the EC50 [2] of the same compound?
Answer: Its EC50 is 1.65 µM.

Question: What about the EC50 [3] of the same compound?
Answer: The EC50 was 8.98 µM.

Question: What about the body weight [5] of the same compound?
Answer: The body weight was “no changes”.

Question: And the “kidney functions (serum creatinine and blood urea and nitrogen)” value [5]?
Answer: Its value is “no changes”.

Question: What about the “liver functions (ALT and AST)” value [5] of the same compound?
Answer: The value was “no changes”.

Question: What about the “morphology (kidney, liver, lung)” value [5] of the same compound?
Answer: The value was “no changes”.
